# Like-named read-outs stand apart in the source and are kept apart here.
# Assays:
# [1] = male, beagle, dog, in vivo, 20 mg/kg
# Procedure: (§1) Animals. Animals (Male SD rats ˜200-250 g and Male Beagle dog ˜12-15 kg) were obtained from an approved vendor.
# (§2) Animals were […] at least 12 hours prior to the administration. All animals had access to Certified Rodent and non-Rodent Diet ad libitum 4 hours post dosing.
# (§3) Dose Formulation. The formulations were prepared on the day of dosing. Animals were dosed within four hours after the formulation is prepared. Two 20 μL aliquots of each formulation were removed from each of the formulation solutions, transferred into 1.5 mL of polypropylene microcentrifuge tubes and run dose validation by LC/UV or LC-MS/MS.
# (§4) Dose Administration. For SC/IM dosing, the dose formulation was administered via subcutaneous/intramuscular injection respectively following facility SOPs.
# (§5) Sample Collection. Approximately 200 μL blood was collected from saphenous vein at each time point for rats and 0.5 mL for rhesus macaques. All blood samples were transferred into microcentrifuge tubes containing 4 μL of K2EDTA (0.5M) as anti-coagulant and placed on wet ice until processed for plasma.
# (§6) Blood/Plasma processing. Blood: Blood samples were processed for plasma by centrifugation at approximately 4° C., 3000 g 15 min within half an hour of collection. Plasma samples was stored in polypropylene tubes, quick frozen over dry ice and kept at −70±10° C. until LC/MS/MS analysis.
# (§7) • LC-MS/MS methods for the quantitative determination of test compound in corresponded biological matrix was developed under non-GLP compliance. • A calibration curve with 8 non-zero calibration standards was applied for the method including LLOQ. • A set of QC samples consisting of low, middle, and high concentration was applied for the method. • The study sample analysis will be performed concurrently with a set of calibration standards and two sets of QC samples using the LC-MS/MS method (If sample numbers were more than 48, then two calibration curves with 2 sets of QC samples were applied). • Acceptance criteria: • Linearity: a minimum of 6 calibration standards was back calculated to within ±20% of their nominal values in plasma. • Accuracy: A minimum of 4 out of 6 QC samples was back calculated to within ±20% of their nominal values in plasma. • Specificity: The mean calculated concentration in the single blank matrix should be 0.5 times the LLOQ. • Sensitivity: the LLOQ will be tried to target 1˜3 ng/mL. • Carryover: the mean calculated carry-over concentration in the single blank matrix immediately after the highest standard injection should be LLOQ. If the carryover couldn't meet the criteria, then the percent of carryover should be estimated following in-house bioanalytical SOP.
# (§8) Data Analysis. Plasma concentration versus time data was analyzed by non-compartmental approaches using the Phoenix WinNonlin 6.3 software program.
# The aqueous suspension formulations were derived from 0.5% CMC-Na and 0.5% Tween 80. […] Micronized ETV (D50=2.4 um; D90=5.0 um) and prodrug 29 (D50=1.8 um; D90=4.0 um) and non-micronized prodrug 11 (D50=4.4 um; D90=13.0 um) were used for this study.
# [2] = Single dose rat PK, intramuscular (Example 39); assay type: in vivo, Male SD rats
# Procedure: as §1, §2, §3, §4, §5, §6, §7
# Data Analysis. Plasma concentration versus time data was analyzed by non-compartmental approaches using the Phoenix WinNonlin 6.3 software program. Cmax, Tmax, T1/2, AUC(0-1), AUC(0-int), MRT(0-1), MRT(0-int), % F and graphs of plasma concentration versus time profile were reported.
# Bis-DHA prodrug 9 (31 mg/kg equivalent dose of ETV) and ETV (20 mg/kg) were subjected to single dose rat PK studies via intramuscular route of administration. Non-micronized prodrug and ETV were used. […] Enhanced half-life and mean residence life were also observed for prodrug 9 making it suitable as a long-acting agent.
# The data are shown in graphic form in FIG. 18.
# [3] = Single dose dog PK, intramuscular and subcutaneous, monitored 56 days (Example 41); assay type: in vivo, Male Beagle dog; settings: dose-normalized
# Procedure: as §1, §2, §3, §4, §5, §6, §7, §8
# The aqueous suspension formulations were derived from 0.5% CMC-Na and 0.5% Tween 80. […] Micronized ETV-palmitate (D50=3.0 um; D90=10.5 um) and prodrug 36 (D50=7.0 um; D90=16.6 um) and non-micronized prodrug 11 (D50=4.4 um; D90=13.0 um) were used for this study.
# The data are shown in graphic form in FIG. 12.
compound,measurement,setting,value
"C=C1[C@H](CO)[C@@H](O)C[C@@H]1n1cnc2c(=O)[nH]c(N)nc21 [ETV, Entecavir]",Clast,[1],0.2 ng/mL
same,day of Clast,[1],41 days
same,AUC0-inf,[1]; im,25294 ± 2044 ng·h/mL
same,AUC0-last,[1]; im,25134 ± 1970 ng·h/mL
same,Cmax,[1]; im,2390 ± 219 ng/mL
same,MRT0-inf,[1]; im,30.8 ± 4.8 h
same,T1/2,[1]; im,438 ± 263 h
same,Tmax,[1]; im,2.3 ± 1.2 h
same,d.n. Cmax,"[2]; in vivo, im",91.65 ng/mL/mg/kg
same,Clast,"[2]; male, SD, in vivo",1.4 ng/mL
same,day of Clast,"[2]; male, SD, in vivo",5 days
"C=C1[C@H](COC(=O)CC/C=C\C/C=C\C/C=C\C/C=C\C/C=C\C/C=C\CC)[C@@H](OC(=O)CC/C=C\C/C=C\C/C=C\C/C=C\C/C=C\C/C=C\CC)C[C@@H]1n1cnc2c(=O)[nH]c(N)nc21 [Prodrug 9, (4Z,7Z,10Z,13Z,16Z,19Z)-(1S,2R,4S)-4-(2-amino-6-oxo-1H-purin-9(6H)-yl)-2-(((4Z,7Z,10Z,13Z,16Z,19Z)-docosa-4,7,10,13,16,19-hexaenoyloxy)methyl)-3-methylenecyclopentyl docosa-4,7,10,13,16,19-hexaenoate]",half-life and mean residence life,"[2]; single IM dose, compared with ETV",Enhanced
same,d.n. Cmax,"[2]; single IM dose, dose-normalized",0.37 ng/mL/mg/kg
"C=C1[C@H](COC(=O)Cc2ccccc2)[C@@H](OC(=O)Cc2ccccc2)C[C@@H]1n1cnc2c(=O)[nH]c(N)nc21 [Prodrug 11, ((1R,3S,5S)-3-(2-amino-6-oxo-1H-purin-9(6H)-yl)-2-methylene-5-(2-phenylacetoxy)cyclopentyl)methyl 2-phenylacetate]",d.n. AUC0-last,[3]; single IM dose,1286 ng·h/mL/mg/kg
same,d.n. Cmax,[3]; single IM dose,2.2 ng/mL/mg/kg
same,d.n. AUC0-last,[3]; single SC dose,874 ng·h/mL/mg/kg
same,d.n. Cmax,[3]; single SC dose,1.8 ng/mL/mg/kg
C=C1[C@H](CO)[C@@H](OC(=O)Cc2ccccc2)C[C@@H]1n1cnc2c(=O)[nH]c(N)nc21 [Prodrug 36],d.n. AUC0-last,[3]; single SC dose,1586 ng·h/mL/mg/kg
same,d.n. Cmax,[3]; single SC dose,8.2 ng/mL/mg/kg

# From US20240190878A1, “ANTIVIRAL PRODRUGS OF ETV AND FORMULATIONS THEREOF” (THE SCRIPPS RESEARCH INSTITUTE, priority 2022, published 2024)
